In patent US9075070B2, “HTS fluorescence polarization assay for inhibitors of Keap1-Nrf2 interaction” (RUTGERS, THE STATE UNIVERSITY OF NEW JERSEY, priority 2011, dated 2015):

Target: human Keap1 Kelch domain (Homo sapiens, UniProt Q14145)
Test: FP binding assay: titration of fluorescently labeled Nrf2 peptide probes with Keap1 Kelch domain
Details: difference in the free and the bound anisotropy of the FITC-labeled peptide

Sequence of human Keap1 Kelch domain (Q14145 with tags, fused parts or gaps): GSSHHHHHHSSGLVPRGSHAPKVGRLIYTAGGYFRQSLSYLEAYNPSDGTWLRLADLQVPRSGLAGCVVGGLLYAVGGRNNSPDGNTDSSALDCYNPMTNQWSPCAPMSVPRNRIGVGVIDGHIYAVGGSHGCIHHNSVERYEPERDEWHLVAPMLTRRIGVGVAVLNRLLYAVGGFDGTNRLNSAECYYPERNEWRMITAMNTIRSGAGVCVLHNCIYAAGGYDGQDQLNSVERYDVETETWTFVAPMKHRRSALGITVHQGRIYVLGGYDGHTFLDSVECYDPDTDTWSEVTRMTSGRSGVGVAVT

CC(C)C[C@H](NC(=O)[C@H](Cc1ccccc1)NC(=O)[C@H](CCC(=O)O)NC(=O)CNC(=O)[C@@H](NC(=O)[C@H](CCC(=O)O)NC(=O)[C@H](CCC(=O)O)NC(=O)[C@H](CC(=O)O)NC(=O)[C@H](CC(C)C)NC(=O)[C@H](CCC(N)=O)NC(=O)[C@H](CC(C)C)NC(=O)[C@H](CCC(N)=O)NC(=O)[C@H](C)NC(=O)[C@H](Cc1ccccc1)NC(=S)Nc1ccc2c(c1)C(=O)OC21c2ccc(O)cc2Oc2cc(O)ccc21)[C@@H](C)O)C(=O)O [FITC-14mer Nrf2]
Dynamic Range (ΔmA): 64.2 mA
